These results are taken from patent US9056847B2, “Activity based probes (ABPs) interacting with glycosidases” (ACADEMISCH MEDISCH CENTRUM BIJ UNIVERSITEIT VAN AMSTERDAM, priority 2010, dated 2015).

Read-outs that look alike come from different tables or passages of the source.

Series [1] addresses T1, GBA (Homo sapiens (Human), UniProt P04062, R534H). As to the kind of experiment: Continuous substrate release assay for inhibition constants. It is filed as biochemical. The settings on record: for Ki: equilibrium constant for initial binding; for Ki / ki: reported with s.e.m.; for ki: rate constant; for ki/Ki: relative rate constant. The source says:
Previously discontinuous methods have been used to determine the inhibition constants of glycosidase inhibitors. […] Therefore the inhibition constants have been determined in a continuous substrate assay which was first described in 1982 (2) and has recently been reappraised in 2010 (3). In these experiments, inhibition of the enzyme and hydrolysis of the substrate proceed concurrently making the situation slightly more complex than the discontinuous (FIG. 39 Scheme 2). The time-dependent interaction of inhibitor (I) with free β-glucosidase (E) was considered to occur in separate stages (A). A rapid reversible interaction is followed by a slower, irreversible reaction that transforms the reversible enzyme-inhibitor complex (EI) into an irreversible enzyme-inhibitor complex (EI*) (FIG. 39 Scheme 2). Progress curves were obtained (FIG. 28a) and apparent rate constant k′ was plotted versus the concentration (FIG. 28b) to obtain estimates of the Ki (equilibrium constant) and ki (rate constant)
To 100 μL McIlvaine buffer (pH 5.2, 0.2% sodium taurocholate, 0.1% Triton X-100) containing 4-methylumbelliferyl β-D-glucoside (7.5 mM) in Greiner flat bottom black 96-well plate was added 5 μL inhibitor (25× stock in DMSO). The resulting mixture was preincubated at 37° C. for 15 min in a TECAN GENios microplate reader. GBA (2 ng) in McIlvaine buffer (20 μL pH 5.2, 0.2% sodium taurocholate, 0.1% Triton X-100) was preheated to 37° C. for 15 min before being added to the substrate mix. The resulting solution was mixed by horizontal shaking for 15 sec, after which release 4-methylumbelliferyl measured with a TECAN GENios platereader (λex 340 nm and λem 465 nm) for the indicated time. Bleaching of the fluorophore, which was observed during the assay, was corrected by subtracting blanks (100 μL substrate buffer, 5 μL DMSO, 20 μL McIlvaine buffer). Apparent rate constants k′ were obtained by fitting the resulting progress curves (FIG. 28A) to the one-phase association equitation y (y max y0)(1−exp^−kt)yo+in GraphPad Prism version 5.00 for Windows, GraphPad Software, San Diego Calif. USA, www.graphpad.com. Measurements were performed in nine fold and plotting of the obtained k′ values versus [^I0] yielded rectangular hyperbolar functions (FIG. 28B).
[formula] estimates of Ki app and ki were obtained. The Ki value in the absence of substrate was obtained by correcting the Ki app with […]

Series [2] addresses T1, GBA. As to the kind of experiment: Competition assay for labeling of recombinant GBA with MDW933. It is filed as biochemical. The note with it: 2 mM, 30 min.
Series [3] has as its target T1, GBA. The experiment in a line: GBA enzyme activity assay with 4-methylumbelliferyl β-D-glucopyranoside, inhibitor preincubated 30 min (apparent IC50). Format: biochemical.
The next series addresses GBA1 (Homo sapiens (Human), UniProt P04062). As to the kind of experiment: Kinetic constants of GBA1 inhibition (Table 2). Format: biochemical. The settings on record: Table 2 kinetic constants.
The next series concerns fibroblasts. As to the kind of experiment: Toxicity monitoring by live-cell imaging of fibroblasts. Format: cell-based, human. The note with it: after 100 h of exposure. On the procedure: (§1) We next studied the labeling of GBA by MDW941 in intact fibroblasts using time-lapse microscopy. […] As a control, matched mice received the buffer solution intravenously. […] In addition to GBA, MDW933 clearly labeled other proteins that occur in the intestine in the mouse.
With the 37° C., 10% CO2 incubator enclosing the microscope, […] microscopy with an N2.1 filter block and phase-contrast brightfield microscopy (Leica IR-BE with Z-motor drive and a Plan APO 63×/1.40 oil immersion objective (Leica Microsystems, Rijswijk, The Netherlands), equipped with a KX85 camera, Apogee Instruments, Auburn, Calif., USA). […] An auto-focus routine was applied during acquisition. Images were analyzed using TimeLapseAVI 5.1.4 software (©Ron Hoebe, CMO, AMC, University of Amsterdam, The Netherlands; R.A.Hoebe@amc.uva.nl).

The target of series [4] is T2, GBA (Homo sapiens (Human), UniProt P04062). As to the kind of experiment: Time-lapse microscopy of GBA labeling in intact fibroblasts. The note with it: 5 nM. It is filed as cell-based. On the procedure: as §1
With the 37° C., 10% CO2 incubator enclosing the microscope, cells were imaged every 5 min for 2 hours simultaneously using fluorescence microscopy with an N2.1 filter block and phase-contrast brightfield microscopy (Leica IR-BE with Z-motor drive and a Plan APO 63×/1.40 oil immersion objective (Leica Microsystems, Rijswijk, The Netherlands), equipped with a KX85 camera, Apogee Instruments, Auburn, Calif., USA). […] An auto-focus routine was applied during acquisition. Images were analyzed using TimeLapseAVI 5.1.4 software (©Ron Hoebe, CMO, AMC, University of Amsterdam, The Netherlands; R.A.Hoebe@amc.uva.nl).

In series [5] the target is T2, GBA. As to the kind of experiment: Fluorescence microscopy of probe-labeled fibroblasts. Format: cell-based. The settings on record: 5 nM, 2 h. As to the method:
We studied in situ labeling of GBA in cells using fluorescence-activated cell sorting (FACS) analysis. We first preincubated cells in the absence or presence of CBE and subsequently incubated the cells with a subsaturating or an excess amount of the green fluorescent probe 5. […] These positive results prompted us to analyze labeling of the cells with fluorescence microscopy (FIG. 25c-f). […] We also detected GBA protein by indirect immunofluorescence using the specific anti-GBA monoclonal antibody 8E4 (ref. 29). Using multispectral image analysis, we could specifically distinguish the respective fluorescent emission spectra (FIG. 25d-e) from autofluorescent background (FIG. 25c). […] As probes with a hydrophobic BODIPY moiety might nonspecifically be retained in membranes, in particular the plasma membrane, we studied this possibility more closely. […] These control probes did inhibit GBA in vitro with IC^50 values of 41 and 95 μM, respectively. However, inhibition is presumably reversible.
Fibroblasts were cultured on glass slides. […] Next, cells were washed, fixed with 3% (v/v) paraformaldehyde in PBS for 15 min, washed and incubated first with 0.05% (w/v) saponine for 15 min, next with 0.1 mM NH4Cl in PBS for 10 min and then with 3% (w/v) bovine serum albumin in PBS for 1 h. Next, the slides were incubated with anti-GBA monoclonal antibody 8E4 (1:500). […]

The next series has as its target N370S GBA (Homo sapiens (Human), UniProt P04062, N370S). As to the kind of experiment: Chaperone experiment using isofagomine in N370S GBA fibroblasts. Format: cell-based. The settings on record: 7 d, 0, 10, 30 and 300 nM.
Series [6] has as its target T1, GBA. As to the kind of experiment: Reversibility of isofagomine competition for active site labeling. Format: biochemical. The note with it: pH 5.2, wash before labeling with MDW933 (10 nM for 15 min).
The next series has as its system lactase. The experiment in a line: Lactose competition of MDW933 labeling in intestinal homogenates. It is filed as biochemical, mouse. The settings on record: lactose 250 mM. The source says:
FIG. 32 Indenfication of the 160 kDa protein. […] (b) Quantification of the observed fluorescent signal. Data represent mean values±s.d.

The mark [7] stands for this setting: rec. GBA1, 30 min, 37 C., pH 5.2 + Tch, Tr, read-out: Apparent IC50 (nM) rec. GBA1: 30 min, 37 C., pH 5.2 + Tch, Tr.
Setting [8] is: recombinant GBA, in vitro, read-out: apparent half-maximal inhibitory concentration (IC50).

Sequence of GBA1 (P04062 40-536): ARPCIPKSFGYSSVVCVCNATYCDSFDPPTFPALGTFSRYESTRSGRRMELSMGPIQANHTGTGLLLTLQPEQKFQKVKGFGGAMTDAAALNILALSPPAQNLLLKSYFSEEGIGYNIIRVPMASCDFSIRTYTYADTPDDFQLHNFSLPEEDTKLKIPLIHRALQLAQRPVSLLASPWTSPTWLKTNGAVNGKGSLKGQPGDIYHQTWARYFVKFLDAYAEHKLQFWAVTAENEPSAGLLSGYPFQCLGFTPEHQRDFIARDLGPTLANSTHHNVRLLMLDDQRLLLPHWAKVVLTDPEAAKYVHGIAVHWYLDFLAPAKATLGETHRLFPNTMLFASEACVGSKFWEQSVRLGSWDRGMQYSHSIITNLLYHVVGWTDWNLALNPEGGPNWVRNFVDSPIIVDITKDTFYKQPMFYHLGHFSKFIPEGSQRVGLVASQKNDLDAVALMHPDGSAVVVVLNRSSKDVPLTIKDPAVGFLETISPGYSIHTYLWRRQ
T1 sequence (P04062 40-536 R534H): as the sequence (P04062 40-536) above, with R495H counted along it
T2 sequence (P04062 40-536): as the sequence (P04062 40-536) above
Sequence of N370S GBA (P04062 40-536 N409S): as the sequence (P04062 40-536) above, with N370S counted along it

In general, Km refers to the concentration of substrate that gives half-maximal velocity. As to `Cc1cc(=O)oc2cc(O[C@@H]3O[C@H](CO)[C@@H](O)[C@H](O)[C@H]3O)ccc12` [4-methylumbelliferyl β-D-glucoside, reference compound], the Km on GBA [1] turned out to be 1200 µM.
By Ki is commonly meant the equilibrium dissociation constant of an inhibitor or competing ligand from its target. A low value points to a stronger hold on the target. In the case of `O[C@H]1[C@H](O)[C@@H](O)[C@@H]2O[C@@H]2[C@@H]1O` [CBE, Conduritol B-epoxide, reference compound], the “effect of preincubation on labeling with MDW933” value at GBA [2] is reported as “blocked labeling completely”. Moreover, on GBA [1], the inhibition constant (Ki) is 53000 ± 10800 nM, the “ki” value is 0.217 ± 0.026 min⁻¹ and the “ki/Ki” value was found to be 67 M⁻¹ s⁻¹. Also, the IC50 at GBA [3] (setting [7]) came to 12000 nM. Also, at GBA1, the affinity corresponds to a Ki of 7730 nM and the ki stood at 0.0244 min⁻¹.
`OC[C@@H]1[C@@H](O)[C@H](O)[C@@H](O)[C@@H]2O[C@H]12` [Cyclophellitol 3, cyclophellitol, reference compound]: at GBA [1], the inhibition constant (Ki) was 152 ± 26 nM, the “ki” value was determined as 0.078 ± 0.010 min⁻¹ and the “ki/Ki” value stood at 8570 M⁻¹ s⁻¹. Further, at GBA [3] (setting [8]), the IC50 was found to be 150 ± 9 nM.
For `[N-]=[N+]=NC[C@@H]1[C@@H](O)[C@H](O)[C@@H](O)[C@@H]2O[C@H]12` [KY170, (2S,3R,4S,5S)-8-azido-8-deoxy-cyclophellitol], at GBA [1], affinity was put at a Ki of 44 ± 7 nM, the “ki” value was 0.035 ± 0.003 min⁻¹ and the “ki/Ki” value turned out to be 13200 M⁻¹ s⁻¹. Also, at GBA [3] (setting [7]), the IC50 came out at 150 ± 30 nM. Also, on GBA [3] (setting [8]), the IC50 was 120 ± 4 nM. The affinity at GBA1 corresponds to a Ki of 83 nM.
As for `COc1ccc(C2=[N+]3C(=C(CCCCc4cn(C[C@@H]5[C@@H](O)[C@H](O)[C@@H](O)[C@@H]6O[C@H]56)nn4)c4ccc(-c5ccc(OC)cc5)n4[B-]3(F)F)C=C2)cc1` [MDW941], the “signs of apoptosis or toxicity” value with fibroblasts is on record as “did not show any signs of apoptosis or toxicity”. Also, at GBA [4], the “time to maximum labeling” value was no more than 15 min. Further, on GBA [1], the inhibition constant (Ki) came to 8 ± 3 nM, the “ki” value came out at 0.208 ± 0.063 min⁻¹ and the “ki/Ki” value was 418300 M⁻¹ s⁻¹. In addition, the IC50 at GBA [3] (FIG. 16, ABPs designed for GBA1, read-out: IC50) amounted to 2 nM. On GBA [3] (recombinant GBA, read-out: apparent half-maximal inhibitory concentration (IC50)), the IC50 turned out to be 1.94 ± 0.08 nM. Moreover, on GBA1, the Ki was determined as 1.56 nM and the ki was 0.0236 min⁻¹.
As for `CC1=CC(C)=[N+]2C1=C(CCCCc1cn(C[C@H]3C=C[C@H](O)[C@@H](O)[C@@H]3O)nn1)c1c(C)cc(C)n1[B-]2(F)F` [MDW1064], at GBA [3] (setting [8]), the IC50 is 41000 nM.
As to `COc1ccc(C2=[N+]3C(=C(CCCCc4cn(C[C@H]5C=C[C@H](O)[C@@H](O)[C@@H]5O)nn4)c4ccc(-c5ccc(OC)cc5)n4[B-]3(F)F)C=C2)cc1` [MDW1065], the labeling of fibroblasts result on GBA [5] is on record as “hardly any detectable labeling”. The IC50 on GBA [3] (setting [8]) was found to be 95000 nM.
Consider `OC[C@H]1CNC[C@@H](O)[C@@H]1O` [isofagomine], for which, on N370S GBA, the “GBA enzyme activity in cell homogenates” value is reported as “modest isofagomine dose-dependent increase” and the “fluorescent MDW941-labeled GBA quantified on gel” value is given as “modest dose-dependent increase”. Also, the “reversibility of competition for the active site” value at GBA [6] was “fully reversible”.
As for `OC[C@H]1O[C@@H](O[C@H]2[C@H](O)[C@@H](O)C(O)O[C@@H]2CO)[C@H](O)[C@@H](O)[C@H]1O` (stereo partly shown) [lactose], in the series on lactase, the “reduction of labeling of the high-molecular weight protein in the intestinal fraction” value is less than 90%.
